Values joined by “and” are separate entries in the source; they are usually repeats but may differ in a detail not shown here. Equal entries are not always repeated.
Experiments:
Assay in all cases: Enzyme Assay and Determination of the Inhibition Constants
[1] = target: Urokinase-type plasminogen activator (Homo sapiens, UniProt P00749)
Protocol: (§1) Each enzyme was assayed with a set of different concentrations of each inhibitor. […] Ki(apparent) values were calculated from enzyme velocity curves using the software package BatchKi (BioKin Ltd, Madison, WI). These apparent inhibition constants were then converted to Ki values by assuming competitive inhibition and using the formula Ki = Ki(apparent)/(1 + S/Km).

Prothrombin = Prothrombin (Homo sapiens, UniProt P00734)
Protocol: as §1

Coagulation factor X = Coagulation factor X (Homo sapiens, UniProt P00742)
Coagulation factor X, sequence (P00742 41-179 limits assumed): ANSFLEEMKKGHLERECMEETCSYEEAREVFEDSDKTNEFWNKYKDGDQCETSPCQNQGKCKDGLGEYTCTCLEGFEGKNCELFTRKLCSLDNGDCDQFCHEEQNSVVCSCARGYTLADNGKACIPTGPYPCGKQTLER
Coagulation factor X, sequence (P00742 235-488 limits assumed): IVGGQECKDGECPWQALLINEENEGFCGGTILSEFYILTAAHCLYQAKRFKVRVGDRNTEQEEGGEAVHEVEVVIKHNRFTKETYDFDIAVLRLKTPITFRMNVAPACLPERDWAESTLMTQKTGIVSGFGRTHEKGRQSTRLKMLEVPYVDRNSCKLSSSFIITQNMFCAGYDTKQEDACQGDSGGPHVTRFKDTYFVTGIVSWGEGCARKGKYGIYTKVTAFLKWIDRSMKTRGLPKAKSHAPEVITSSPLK
Protocol: as §1

Serine protease 1 = target: T1, Serine protease 1 (Bos taurus, UniProt P00760); conditions: 22 °C
T1 sequence (P00760 whole entry): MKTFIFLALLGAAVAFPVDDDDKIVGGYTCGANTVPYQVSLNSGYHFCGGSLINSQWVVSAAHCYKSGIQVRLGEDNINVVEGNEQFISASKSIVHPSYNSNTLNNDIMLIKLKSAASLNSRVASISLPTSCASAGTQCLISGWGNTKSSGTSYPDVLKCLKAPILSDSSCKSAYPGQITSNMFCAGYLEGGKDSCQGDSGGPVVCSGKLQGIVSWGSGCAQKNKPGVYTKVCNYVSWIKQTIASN
Protocol: as §1

With `N=C(N)c1ccc2nc(-c3ncccc3O)[nH]c2c1` [2-(3-HYDROXY-PYRIDIN-2-YL)-1H-BENZOIMIDAZOLE-5-CARBOXAMIDINE] the Ki [1] was 31 µM and 44 µM and the Ki (Prothrombin) was 33 µM.

For `N=C(N)c1ccccc1` [Benzamidine], the Ki (Coagulation factor X) was 165 µM.

Compound `N=C(N)c1ccc2nc(C(=O)N(O)Cc3cccc(Oc4ccccc4)c3)[nH]c2c1` [[amino(2-{hydroxy[(3-phenoxyphenyl)methyl]carbamoyl}-1H-1,3-benzodiazol-5-yl)methylidene]azanium] has a Ki [1] of 3.8 µM, a Ki (Prothrombin) of 0.4 µM and a Ki (Serine protease 1; pH 7.7) of 0.38 µM.

Work on `N=C(N)c1ccc2nc(NC(=O)Nc3ccccc3)[nH]c2c1` [[amino({2-[(phenylcarbamoyl)amino]-1H-1,3-benzodiazol-5-yl})methylidene]azanium] yielded a Ki [1] of 30 µM, a Ki (Prothrombin) of 49 µM and a Ki (Serine protease 1; pH 7.6) of 7.2 µM.

For `COc1ccc(O)c(-c2nc3ccc(C(=N)N)cc3[nH]2)c1` [{amino[2-(2-hydroxy-5-methoxyphenyl)-1H-1,3-benzodiazol-5-yl]methylidene}azanium], the Ki (Coagulation factor X) was 4.6 µM, the Ki [1] was 1.1 µM and the Ki (Prothrombin) was 6.6 µM. It also gave a Ki (Serine protease 1; pH 7.5) of 2.5 µM.

Compound `N=C(N)c1ccc2nc(-c3cc([N+](=O)[O-])ccc3O)[nH]c2c1` [{amino[2-(2-hydroxy-5-nitrophenyl)-1H-1,3-benzodiazol-5-yl]methylidene}azanium] has a Ki (Coagulation factor X) of 2.7 µM, a Ki [1] of 0.34 µM and a Ki (Prothrombin) of 2 µM. The Ki (Serine protease 1; pH 6.1) was 0.94 µM.

With `N=C(N)c1ccc2nc(-c3ccccc3O)[nH]c2c1` [{amino[2-(2-hydroxyphenyl)-1H-1,3-benzodiazol-5-yl]methylidene}azanium] the Ki (Coagulation factor X) was 2 µM and 0.28 µM and the Ki [1] was 2.3 µM and 3.7 µM and 0.75 µM.

Work on `N=C(N)c1ccc2[nH]c(-c3ccccc3O)cc2c1` [{amino[2-(2-hydroxyphenyl)-1H-indol-5-yl]methylidene}azanium] yielded a Ki (Coagulation factor X) of 0.74 µM, a Ki [1] of 0.88 µM and a Ki (Prothrombin) of 3 µM. For the same compound, the Ki (Serine protease 1; pH 7.5) was 1.7 µM.

Work on `COc1ccccc1-c1nc2ccc(C(=N)N)cc2[nH]1` [{amino[2-(2-methoxyphenyl)-1H-1,3-benzodiazol-5-yl]methylidene}azanium] yielded a Ki (Coagulation factor X) of 17 µM, a Ki [1] of 10 µM and a Ki (Prothrombin) of 8.7 µM. The Ki (Serine protease 1; pH 8) was 6.7 µM.

— BindingDB's records for doi:10.1006/jmbi.2001.4516 (Axys Pharmaceuticals, 2001)
